One assay addresses T1, purified human KDM4C (Homo sapiens, UniProt Q9H3R0).
T1 construct: GST; purchased BPS Bioscience
T1 sequence (Q9H3R0 1-1056): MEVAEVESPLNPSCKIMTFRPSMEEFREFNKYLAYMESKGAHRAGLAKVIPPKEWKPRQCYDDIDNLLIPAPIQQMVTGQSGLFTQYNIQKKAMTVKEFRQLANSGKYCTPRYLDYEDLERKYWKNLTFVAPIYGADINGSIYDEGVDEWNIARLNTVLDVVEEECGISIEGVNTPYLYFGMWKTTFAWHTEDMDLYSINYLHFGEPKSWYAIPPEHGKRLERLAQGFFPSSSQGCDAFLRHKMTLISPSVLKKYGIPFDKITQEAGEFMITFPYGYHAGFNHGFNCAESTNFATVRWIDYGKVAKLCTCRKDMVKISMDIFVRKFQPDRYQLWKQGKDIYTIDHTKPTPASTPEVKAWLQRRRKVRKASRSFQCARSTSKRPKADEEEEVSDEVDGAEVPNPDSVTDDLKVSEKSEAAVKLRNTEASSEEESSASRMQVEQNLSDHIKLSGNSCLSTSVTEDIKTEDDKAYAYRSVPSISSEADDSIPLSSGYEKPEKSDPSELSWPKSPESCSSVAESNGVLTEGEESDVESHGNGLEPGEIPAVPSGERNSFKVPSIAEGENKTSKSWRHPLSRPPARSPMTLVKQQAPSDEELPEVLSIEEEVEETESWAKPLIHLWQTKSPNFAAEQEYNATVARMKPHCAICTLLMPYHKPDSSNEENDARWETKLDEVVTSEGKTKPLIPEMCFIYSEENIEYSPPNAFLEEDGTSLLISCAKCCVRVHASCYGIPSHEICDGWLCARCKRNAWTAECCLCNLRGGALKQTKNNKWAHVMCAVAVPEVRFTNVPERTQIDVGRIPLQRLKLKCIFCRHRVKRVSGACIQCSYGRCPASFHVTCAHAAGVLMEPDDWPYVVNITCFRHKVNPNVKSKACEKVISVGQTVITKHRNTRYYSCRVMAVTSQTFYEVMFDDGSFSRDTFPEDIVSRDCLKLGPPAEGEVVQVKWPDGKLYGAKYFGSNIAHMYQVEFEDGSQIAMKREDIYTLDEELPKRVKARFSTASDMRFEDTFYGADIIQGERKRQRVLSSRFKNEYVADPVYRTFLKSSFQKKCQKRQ
The assay can be described thus: In vitro histone demethylase assay (H3K9me3 by Western blot). The format is biochemical. The note with it: bulk histones, α-KG 1 mM, 37° C. for 4 hr, various concentrations. A general note: In western blotting, separated proteins are transferred to a membrane and probed.

The target in a further assay is T2, KDM4C (Homo sapiens, UniProt Q9H3R0).
T2 sequence (Q9H3R0 1-1056): T1 sequence (Q9H3R0 1-1056)
The note with it: prior reports (Chowdhury et al., 2011; Lu et al., 2012); cited from earlier work.

The next assay deals with SF188 cells. The assay can be described thus: Intracellular 2HG by GC-MS in SF188 cells supplemented with cell-permeable α-KG. The format is cell-based, human. The note with it: 48 hr, 5 mM dimethyl-α-KG vs vehicle (DMSO). The protocol: FIG. 2 depicts quantified results of GC-MS histograms showing that hypoxia-induced L-2HG originates from glutamine-derived α-ketoglutarate. Panels in (A and B) are line-drawings showing the fraction of intracellular 2HG labeled by ^13C at the indicated time. Isotope tracing was performed in SF188 cells cultured in medium containing either [U-^13C]glucose or [U-^13C]glutamine. […] Panels in (C) are bar graphs showing normalized 2HG. SF188 cells were cultured for 48 hr in 21% or 0.5% O2 in the presence of vehicle (DMSO) or 5 mM dimethyl-α-KG. Total intracellular 2HG was assessed by GC-MS. […] Representative data from 1 of 3 independent experiments are shown. Panels in (D and E) are GC-MS histograms showing 2HG ions in different conditions. SF188 cells were cultured as in (C), then chiral derivatization of metabolites was performed to allow separation of 2HG enantiomers by GC-MS. Panels in (D) show an overlay of GC-MS histograms for 2HG on the same scale. […]
Metabolites were extracted with 1 mL ice-cold 80% methanol supplemented with 2 micromolar deuterated 2-hydroxyglutarate (D-2-hydroxyglutaric-2,3,3,4,4-d5 acid; deuterated-D-2HG) as an internal standard. […] Samples were analyzed using an Agilent 7890A GC coupled to Agilent 5975C mass selective detector. […] Ions used for quantification of metabolite levels were 2HG m/z 247 and deuterated-2HG m/z 252. […]

We go through three compounds from US11788112B2, “L-2-hydroxyglutarate and stress induced metabolism” (Memorial Sloan-Kettering Cancer Center, priority 2014, dated 2023).

For `O=C(O)CC[C@H](O)C(=O)O` [L-2HG, L-2-hydroxyglutarate], the “inhibition of KDM4C demethylation of H3K9me3” value on purified human KDM4C is recorded as “sensitive to inhibition by L-2HG, in a dose dependent manner”. At KDM4C, the “inhibition of KDM4C” value is listed as “roughly comparable inhibition”. As for D-2-hydroxyglutarate [D-2HG], the “inhibition of KDM4C” value on KDM4C was “roughly comparable inhibition”. Turning to `COC(=O)CCC(=O)C(=O)OC` [dimethyl-α-KG, dimethyl alpha-ketoglutarate], the “increase in intracellular 2HG” value in the assay with SF188 cells (hypoxia (0.5% O2), confirmed to be L-2HG by chiral derivatization) is around 100 fold; with SF188 cells (normoxia (21% O2)), “modest increase”.
